Reference: the supplement of paper PMC12533247
± gives the standard deviation of the averaged measurements.

Key:
[1] = system: HSV-1 K26-GFP infected 3D skin equivalent; test: % activity on HSV-1 GFP signal (0 = infected DMSO control, -100 = uninfected control); higher = higher signal (negative = inhibition / toxicity); settings: time (h post infection): 48
Description: (§1)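 Triplicate dose-response (0.04 to 10 uM) of 11 top compounds in 3D bioprinted skin equivalents (submerged and ALI models) infected with GFP-HSV-1 K26 at MOI 0.1 and fixed at 48 hpi. GFP (virus) and tdTomato (fibroblast viability) signals are normalised to per-plate controls.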

[2] = system: HSV-1 K26-GFP infected primary human skin cells; test: % change of HSV-1 GFP signal vs untreated infected cells; higher = less antiviral inhibition
Description: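 2D primary donor-derived keratinocytes (read at 20 hpi) and donor-matched dermal fibroblasts (read at 48 hpi) infected with GFP-HSV-1 K26 at MOI 1 and treated 1 h later with compound dilutions. IncuCyte GFP integrated intensity is normalised by subtracting mock-infected wells and dividing by untreated infected wells, shown as % change (-100 = full inhibition).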

[3] = system: HSV-1 K26-GFP infected 3D skin equivalent; test: % change of tdTomato fibroblast signal relative to infected DMSO control; higher = higher signal (negative = inhibition / toxicity); settings: time (h post infection): 48
Description: as §1

[4] = system: HSV-1 K26-GFP infected primary human skin cells; test: % change of HSV-1 GFP signal vs untreated infected cells; higher = less antiviral inhibition; settings: cell type: primary dermal fibroblasts, time (h post infection): 48
Description: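 2D primary donor-derived dermal fibroblasts infected with GFP-HSV-1 K26 at MOI 1, treated 1 h later with compound dilutions and read at 48 hpi on IncuCyte. GFP integrated intensity is normalised to mock-infected and untreated infected wells (% change; -100 = full inhibition).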

Nc1ccn([C@@H]2O[C@H](CO)[C@@H](O)C2(F)F)c(=O)n1 [Gemcitabine]
Settings	% activity on HSV-1 GFP signal [%]	% change of HSV-1 GFP signal [%]	% change of tdTomato fibroblast signal [%]
[1], 0.041152 µM, model: ALI	-11.7 ± 50	–	–
[1], 0.041152 µM, model: submerged	-9.74 ± 4.5	–	–
[1], 0.123457 µM, model: ALI	-37.9 ± 9.5	–	–
[1], 0.123457 µM, model: submerged	-26.5 ± 9	–	–
[1], 0.37037 µM, model: ALI	-102 ± 1.4	–	–
[1], 0.37037 µM, model: submerged	-92.4 ± 1.9	–	–
[1], 1.111111 µM, model: ALI	-106 ± 8.3	–	–
[1], 1.111111 µM, model: submerged	-97 ± 2.7	–	–
[1], 3.33333 µM, model: ALI	-99.4 ± 8.2	–	–
[1], 3.33333 µM, model: submerged	-99 ± 3.6	–	–
[1], 10 µM, model: ALI	-102 ± 5.1	–	–
[1], 10 µM, model: submerged	-99.8 ± 4.7	–	–
[3], 0.041152 µM, model: ALI	–	–	-3.97 ± 2.9
[3], 0.041152 µM, model: submerged	–	–	-1.22 ± 7.7
[3], 0.123457 µM, model: ALI	–	–	-3.65 ± 2.6
[3], 0.123457 µM, model: submerged	–	–	-6.59 ± 3.1
[3], 0.37037 µM, model: ALI	–	–	-3.96 ± 9.1
[3], 0.37037 µM, model: submerged	–	–	-13.9 ± 4
[3], 1.111111 µM, model: ALI	–	–	-5.76 ± 7.3
[3], 1.111111 µM, model: submerged	–	–	-17.6 ± 3.4
[3], 3.33333 µM, model: ALI	–	–	-10.9 ± 1.4
[3], 3.33333 µM, model: submerged	–	–	-22.7 ± 4.1
[3], 10 µM, model: ALI	–	–	-5.25 ± 5.6
[3], 10 µM, model: submerged	–	–	-28.4 ± 4.2
[4], 0.001 µM, donor: 3	–	2.63 ± 9	–
[4], 0.003 µM, donor: 3	–	2.52 ± 8	–
[4], 0.003 µM, donor: 4	–	-2.11 ± 3.5	–
[4], 0.0091 µM, donor: 3	–	1.9 ± 13	–
[4], 0.0091 µM, donor: 4	–	-1.82 ± 3.8	–
[4], 0.0274 µM, donor: 3	–	-32.1 ± 10	–
[4], 0.0274 µM, donor: 4	–	-16.7 ± 10	–
[4], 0.0823 µM, donor: 3	–	-96.7 ± 3.6	–
[4], 0.0823 µM, donor: 4	–	-78 ± 21	–
[4], 0.2469 µM, donor: 3	–	-99.824 ± 0.023	–
[4], 0.2469 µM, donor: 4	–	-96.4 ± 6	–
[4], 0.7407 µM, donor: 3	–	-99.797 ± 0.099	–
[4], 0.7407 µM, donor: 4	–	-99.75 ± 0.28	–
[4], 2.2222 µM, donor: 3	–	-99.74 ± 0.14	–
[4], 2.2222 µM, donor: 4	–	-99.81 ± 0.17	–
[4], 6.6667 µM, donor: 3	–	-99.76 ± 0.19	–
[4], 6.6667 µM, donor: 4	–	-99.83 ± 0.13	–
[4], 20 µM, donor: 3	–	-99.73 ± 0.18	–
[4], 20 µM, donor: 4	–	-99.907 ± 0.068	–

% change of HSV-1 GFP signal [%], [2]
Settings	0.001 µM	0.003 µM	0.0091 µM	0.0274 µM	0.0823 µM	0.2469 µM	0.7407 µM	2.2222 µM	6.6667 µM	20 µM
cell type: primary dermal fibroblasts, donor: 5, time (h post infection): 48	-5.06 ± 4.5	-5.8 ± 3.2	-2.35 ± 5	-8.4 ± 7.1	-70.4 ± 27	-97.2 ± 4.5	-99.78 ± 0.21	-99.91 ± 0.1	-99.93 ± 0.13	-99.87 ± 0.17
cell type: primary keratinocytes, donor: 3, time (h post infection): 20	29.8 ± 18	37.4 ± 15	36.1 ± 14	17.1 ± 24	-25.6 ± 14	-75.6 ± 6	-97.4 ± 1.2	-98.37 ± 0.85	-99 ± 0.63	-99.06 ± 0.49
cell type: primary keratinocytes, donor: 4, time (h post infection): 20	9.34 ± 20	0.292 ± 4.1	4.89 ± 21	-17.4 ± 47	-50.7 ± 10	-86.4 ± 2	-97.6 ± 2.8	-99.732 ± 0.00042	-99.606 ± 0.023	-99.72 ± 0.28
cell type: primary keratinocytes, donor: 5, time (h post infection): 20	6.72 ± 4.2	7.7 ± 7.3	7.12 ± 7.6	9.71 ± 6.2	-23 ± 33	-73.3 ± 20	-94.7 ± 6.4	-99 ± 1.2	-99.39 ± 0.77	-99.6 ± 0.34

C=CC(=O)N1CC/C(=C\c2ccc(F)c([N+](=O)[O-])c2)C(=O)/C(=C/c2ccc(F)c([N+](=O)[O-])c2)C1 [VLX1570]
Settings	% activity on HSV-1 GFP signal, [1] [%]	% change of tdTomato fibroblast signal, [3] [%]
0.041152 µM, model: ALI	12.8 ± 28	-0.238 ± 6.3
0.041152 µM, model: submerged	-7.34 ± 8.2	0.174 ± 12
0.123457 µM, model: ALI	-18.6 ± 41	-3.26 ± 3.5
0.123457 µM, model: submerged	-4.05 ± 10	-4.91 ± 16
0.37037 µM, model: ALI	-96 ± 7.7	-1.14 ± 15
0.37037 µM, model: submerged	-5.03 ± 10	-4.63 ± 13
1.111111 µM, model: ALI	-97.3 ± 12	-12.1 ± 11
1.111111 µM, model: submerged	-4.45 ± 10	-15 ± 11
3.33333 µM, model: ALI	-103 ± 6.2	-17.4 ± 13
3.33333 µM, model: submerged	-17.6 ± 2.2	-33.6 ± 7.4
10 µM, model: ALI	-101 ± 7.7	-25.4 ± 10
10 µM, model: submerged	-55.5 ± 12	-48 ± 6.9

% change of HSV-1 GFP signal [%], [2]
Settings	0.001 µM	0.003 µM	0.0091 µM	0.0274 µM	0.0823 µM	0.2469 µM	0.7407 µM	2.2222 µM	6.6667 µM	20 µM
cell type: primary dermal fibroblasts, donor: 5, time (h post infection): 48	1.14 ± 3.5	-5.38 ± 5.4	-8.21 ± 6.5	-7.07 ± 4.7	-8.61 ± 9	-9.37 ± 10	-7.7 ± 4.3	-10.9 ± 3.1	-99.906 ± 0.052	-99.87 ± 0.13
cell type: primary keratinocytes, donor: 3, time (h post infection): 20	3.39 ± 15	0.794 ± 18	7.81 ± 8.2	21.4 ± 38	8.28 ± 14	2.87 ± 13	4.02 ± 17	-1.2 ± 35	-51.7 ± 25	-92.7 ± 6
cell type: primary keratinocytes, donor: 4, time (h post infection): 20	-7.51 ± 14	-5.56 ± 13	-6.93 ± 9.7	-1.76 ± 23	-3.15 ± 15	-3.18 ± 12	6.11 ± 3.7	-25 ± 23	-97.4 ± 3.5	-100 ± 0.14
cell type: primary keratinocytes, donor: 5, time (h post infection): 20	4.93 ± 9.7	5.79 ± 8	3.47 ± 9.8	7.82 ± 5.7	7.36 ± 8.3	5.33 ± 7.5	1.2 ± 4.9	-8.44 ± 7	-91.4 ± 11	-99.966 ± 0.047
